Results from US20230146795A1, “ENHANCEMENT OF ANTI-TUMOR ACTIVITY OF SHP2 INHIBITOR PYRIMIDINONE IN COMBINATION WITH NOVEL CANCER MEDICINES IN CANCERS” (TAIHO PHARMACEUTICAL CO., LTD., priority 2020, published 2023).

Experiments:
Format in all cases: cell-based
NCI-H358 = assay: Anti-proliferation assay (CellTiter-Glo 2.0), combination index, NCI-H358
How it was run: (§1)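 Cells were seeded at 500 cells/well in medium with 10% FBS and exposed to agents at 8 concentrations including 0 nM, for 3 days at 37° C under 5% CO2. Survival was read by CellTiter-Glo 2.0 luminescence, and combination index was determined at each combined concentration.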

NCI-H23 = assay: Anti-proliferation assay (CellTiter-Glo 2.0), combination index, NCI-H23
Description: (§2) Cell lines were obtained from ATCC or Health Science Research Resources Bank.
Each cell lines were collected by ordinary method, then suspended in indicated medium containing 10% fetal bovine serum in table 3. The number of cells seeded per well was set to 500 cells/20 μL. […] The concentration of each anti-cancer reagents set to 8 concentrations including 0 nM. After adding the medicine to the cells, the cells were further incubated at 37° C. for 3 days under 5% CO2. Cell survival rates were calculated by adding 20 μL of CellTiter-Glo(registered trademark) 2. 0 (Promega) solution to each well, incubating the cells at room temperature for 10 minutes, and then measuring the chemiluminescence intensity of each well using a plate reader (ARVO).
(§3) A combination index (CI) value at each combined concentration of the medicines was determined.

RT4 = assay: Anti-proliferation assay (CellTiter-Glo 2.0), combination index, RT4
How it was run: as §1

MV-4-11 = assay: Anti-proliferation assay (CellTiter-Glo 2.0), combination index, MV-4-11
Description: as §2
(§4) 384 well culture plate (781086, Greiner Bio-One International) was used for cell survival rate measurement assay. Each cell lines were collected by ordinary method, then suspended in indicated medium containing 10% fetal bovine serum in table 3. The number of cells seeded per well was set to 500 cells/20 μL. After incubation at 37° C. for 24 hours under 5% CO2, Compound 1 and additional compound having an antitumor effect or a vehicle (DMSO) was added to each well by using D300e Digital Dispenser (Tecan). The concentration of Compound 1 was set to 10 concentrations. The concentration of each anti-cancer reagents set to 8 concentrations including 0 nM. After adding the medicine to the cells, the cells were further incubated at 37° C. for 3 days under 5% CO2. Cell survival rates were calculated by adding 20 μL of CellTiter-Glo(registered trademark) 2. 0 (Promega) solution to each well, incubating the cells at room temperature for 10 minutes, and then measuring the chemiluminescence intensity of each well using a plate reader (ARVO).
as §3

RMG-I = assay: Anti-proliferation assay (CellTiter-Glo 2.0), combination index, RMG-I
Description: as §2, §4, §3

[1] = Compound 1 41.2 + combination drug 41.2 nmol/L (1:1)
[2] = Compound 1 123 + combination drug 123 nmol/L (1:1)
[3] = Compound 1 370 + combination drug 370 nmol/L (1:1)
[4] = Compound 1 1110 + combination drug 1110 nmol/L (1:1)
[5] = Compound 1 3330 + combination drug 3330 nmol/L (1:1)
[6] = Compound 1 123 + combination drug 370 nmol/L (1:3)
[7] = Compound 1 370 + combination drug 1110 nmol/L (1:3)
[8] = Compound 1 1110 + combination drug 3330 nmol/L (1:3)
[9] = Compound 1 3330 + combination drug 10000 nmol/L (1:3)
[10] = Compound 1 123 + combination drug 10000 nmol/L (1:81)
[11] = Compound 1 41.2 + combination drug 111 nmol/L (1:2.7)
[12] = Compound 1 123 + combination drug 333 nmol/L (1:2.7)
[13] = Compound 1 370 + combination drug 1000 nmol/L (1:2.7)
[14] = Compound 1 1110 + combination drug 3000 nmol/L (1:2.7)
[15] = Compound 1 13.7 + combination drug 111 nmol/L (1:8.1)
[16] = Compound 1 41.2 + combination drug 333 nmol/L (1:8.1)
[17] = Compound 1 123 + combination drug 1000 nmol/L (1:8.1)
[18] = Compound 1 4.57 + combination drug 111 nmol/L (1:24)
[19] = Compound 1 13.7 + combination drug 333 nmol/L (1:24)
[20] = Compound 1 41.2 + combination drug 1000 nmol/L (1:24)
[21] = Compound 1 1.52 + combination drug 4.12 nmol/L (1:2.7)
[22] = Compound 1 13.7 + combination drug 37.0 nmol/L (1:2.7)

CN(C)C/C=C/C(=O)Nc1cc2c(Nc3ccc(F)c(Cl)c3)ncnc2cc1O[C@H]1CCOC1 [Afatinib]
CI (NCI-H358; [1]): 0.143
Fa (NCI-H358; [1]): 0.4605
CI (NCI-H358; [2]): 0.264
Fa (NCI-H358; [2]): 0.5395
CI (NCI-H358; [3]): 0.426
Fa (NCI-H358; [3]): 0.6382
CI (NCI-H358; [4]): 0.686
Fa (NCI-H358; [4]): 0.7270
CI (NCI-H358; [5]): 0.526
Fa (NCI-H358; [5]): 0.8696
CI (NCI-H23; [6]): 0.776
Fa (NCI-H23; [6]): 0.1325
CI (NCI-H23; [7]): 0.397
Fa (NCI-H23; [7]): 0.3961
CI (NCI-H23; [8]): 0.400
Fa (NCI-H23; [8]): 0.8058
CI (NCI-H23; [9]): 0.471
Fa (NCI-H23; [9]): 0.9563
Description (combinatory effect by CI) (NCI-H23; Compound 1:combination drug molar ratio 1:3): Synergy (0.3-0.7)
CI (RT4; [10]): 0.471
Fa (RT4; [10]): 0.9986
Description (combinatory effect by CI) (RT4; Compound 1:combination drug molar ratio 1:81): Synergy (0.3-0.7)
Fa (MV-4-11; Compound 1 13.7 + combination drug 370 nmol/L (1:27)): 0.6791
Fa (MV-4-11; Compound 1 41.2 + combination drug 1110 nmol/L (1:27)): 0.9244

COc1cc(N2CCC(N3CCN(C)CC3)CC2)ccc1Nc1ncc(Cl)c(Nc2ccccc2P(C)(C)=O)n1 [Brigatinib]
CI (NCI-H358; [11]): 0.885
Fa (NCI-H358; [11]): 0.3039
CI (NCI-H358; [12]): 0.293
Fa (NCI-H358; [12]): 0.6017
CI (NCI-H358; [13]): 0.506
Fa (NCI-H358; [13]): 0.7788
CI (NCI-H358; [14]): 0.871
Fa (NCI-H358; [14]): 0.9063
CI (NCI-H23; [11]): 0.689
Fa (NCI-H23; [11]): 0.0998
CI (NCI-H23; [12]): 0.353
Fa (NCI-H23; [12]): 0.2711
CI (NCI-H23; [13]): 0.447
Fa (NCI-H23; [13]): 0.5739
CI (NCI-H23; [14]): 0.614
Fa (NCI-H23; [14]): 0.8319
Description (combinatory effect by CI) (NCI-H23; Compound 1:combination drug molar ratio 1:2.7): Synergy (0.3-0.7)
CI (RMG-I; [15]): 0.462
Fa (RMG-I; [15]): 0.2251
CI (RMG-I; [16]): 0.493
Fa (RMG-I; [16]): 0.4905
CI (RMG-I; [17]): 0.963
Fa (RMG-I; [17]): 0.6133
Description (combinatory effect by CI) (RMG-I; Compound 1:combination drug molar ratio 1:8.1): Synergy (0.3-0.7)
CI (RT4; [18]): 0.536
Fa (RT4; [18]): 0.2537
CI (RT4; [19]): 0.558
Fa (RT4; [19]): 0.3969
CI (RT4; [20]): 0.459
Fa (RT4; [20]): 0.6106
Description (combinatory effect by CI) (RT4; Compound 1:combination drug molar ratio 1:24): Synergy (0.3-0.7)
CI (MV-4-11; [21]): 0.844
Fa (MV-4-11; [21]): 0.3537
CI (MV-4-11; [22]): 0.430
Fa (MV-4-11; [22]): 0.8161
CI (MV-4-11; [11]): 0.286
Fa (MV-4-11; [11]): 0.9418
CI (MV-4-11; [12]): 0.503
Fa (MV-4-11; [12]): 0.9637
CI (MV-4-11; [13]): 0.933
Fa (MV-4-11; [13]): 0.9768
CI (MV-4-11; [14]): 0.966
Fa (MV-4-11; [14]): 0.9918

C[C@@H](Oc1cc(-c2cnn(C3CCNCC3)c2)cnc1N)c1c(Cl)ccc(F)c1Cl [Crizotinib]
CI (NCI-H23; [8]): 0.939
Fa (NCI-H23; [8]): 0.5445
CI (NCI-H23; [9]): 0.765
Fa (NCI-H23; [9]): 0.8672
